Measured values published in patent US20130196986A1 (priority 2010, published 2013).

These molecules were tested against T1, P2X7 receptor (Homo sapiens, UniProt Q99572) (assay: Ca++ flux assay (FLIPR) in P2X7-HEK-293 cell line stably expressing the full length P2X7 receptor, Bz-ATP activation). Conditions: P2X7-HEK-293 cells; agonist Bz-ATP; fluorescence as total area over 90 seconds; read-out: P2X7 Ca Flux hu IC50.
T1 construct: stably expressing the full length P2X7 receptor; expressed in transfected cells
T1 sequence (Q99572 1-595): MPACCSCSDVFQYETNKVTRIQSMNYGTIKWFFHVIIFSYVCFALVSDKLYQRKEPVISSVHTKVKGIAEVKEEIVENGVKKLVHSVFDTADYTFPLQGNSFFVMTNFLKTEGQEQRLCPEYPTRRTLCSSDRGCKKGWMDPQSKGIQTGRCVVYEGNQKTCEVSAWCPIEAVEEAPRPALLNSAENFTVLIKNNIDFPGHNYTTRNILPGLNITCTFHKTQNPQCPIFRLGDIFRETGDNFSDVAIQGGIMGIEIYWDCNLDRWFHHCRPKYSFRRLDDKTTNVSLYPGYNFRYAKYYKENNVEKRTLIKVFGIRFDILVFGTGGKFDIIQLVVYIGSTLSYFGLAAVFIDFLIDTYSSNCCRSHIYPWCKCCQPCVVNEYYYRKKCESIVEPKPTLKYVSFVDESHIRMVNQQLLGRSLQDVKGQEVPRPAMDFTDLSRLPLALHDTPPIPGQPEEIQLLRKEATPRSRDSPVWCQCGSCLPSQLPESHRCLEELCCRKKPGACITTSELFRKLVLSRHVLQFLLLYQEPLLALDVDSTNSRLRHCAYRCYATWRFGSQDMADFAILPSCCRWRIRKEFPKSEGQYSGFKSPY
Format: cell-based
Method: The ability of Triazolopyrazinone Compounds to inhibit P2X7 function can be determined in Ca^++ flux assay using a P2X7-HEK-293 cell line stably expressing the full length P2X7 receptor. The assay protocol is as described in Cheewatrakoolpong et al., Biochem. Biophys. Res. Commun. 332:17-27 (2005) with minor modification, and is as summarized hereinafter. Briefly, cells were plated in poly-D-lysine-coated wells, and incubated at 37° C. for 24 hours. Cells were then incubated for 1 hour with a loading buffer which contains a dye sensitive to changes in Ca^++ concentration (lx Calcium Plus no wash dye from Molecular Devices, Sunnyvale, Calif.). The test compounds were added to the wells in the dye loading step. Plates containing the wells were transferred to a Fluorometric Imaging Plate Reader (Molecular Devices, Sunnyvale, Calif.). The cells were activated by the addition of the P2X7 receptor agonist 2′(3) —O-(4-benzoylbenzoyl)adenosine 5′-triphosphate (Bz-ATP from Sigma-Aldrich, St. Louis, Mo.), and the fluorescence was monitored for 90 seconds. The fluorescent signal was determined as the total area over the 90 second run time. Using this protocol, representative Triazolopyrazinone Compounds, compounds 1471 were tested. Tables 3 to 6 show the concentration at which 50% of the maximum response in the Ca^++ was inhibited (IC50) for each of the test compounds.

SMILES | IC50 [nM]
Cc1c(Cl)cccc1-n1ccn2c(S(=O)(=O)Cc3ccccc3)nnc2c1=O [Compound 139, 3-(benzylsulfonyl)-7-(3-chloro-2-methylphenyl)-[1,2,4]triazolo[4,3-a]pyrazin-8(7H)-one] | 31.7
Cc1cccc(-c2ccccc2CS(=O)(=O)c2nnc3c(=O)n(-c4cccc(C(F)(F)F)c4C)ccn23)c1 [Compound 137] | 30.4
Cc1c(-n2ccn3c(SCc4ccccc4Cl)nnc3c2=O)cccc1C(F)(F)F [Compound 28, 3-(2-chlorobenzylthio)-7-(2-methyl-3-(trifluoromethyl)phenyl)-[1,2,4]triazolo[4,3-a]pyrazin-8(7H)-one] | 148
O=c1c2nnc(S(=O)(=O)Cc3ccccc3Cl)n2ccn1-c1cccc(C(F)(F)F)c1Cl [Compound 119, 7-(2-chloro-3-(trifluoromethyl)phenyl)-3-(2-chlorobenzylsulfonyl)-[1,2,4]triazolo[4,3-a]pyrazin-8(7H)-one] | 11
Cc1cccc(CSc2nnc3c(=O)n(-c4cccc(Cl)c4C)ccn23)c1 [Compound 73, 7-(3-chloro-2-methylphenyl)-3-(3-methylbenzylthio)-[1,2,4]triazolo[4,3-a]pyrazin-8(7H)-one] | 439
Cc1c(-n2ccn3c(S(=O)(=O)Cc4ccsc4)nnc3c2=O)cccc1C(F)(F)F [Compound 123, 7-(2-methyl-3-(trifluoromethyl)phenyl)-3-(thiophen-3-ylmethylsulfonyl)-[1,2,4]triazolo[4,3-a]pyrazin-8(7H)-one] | 12.4
[2H]c1c([2H])c([2H])c(CSc2nnc3c(=O)n(-c4cccc(Cl)c4C)ccn23)c([2H])c1[2H] [Compound 33] | 85.7
Cc1c(Cl)cccc1-n1ccn2c(N(C)Cc3ccccc3)nnc2c1=O [Compound 169, 3-(benzyl(methyl)amino)-7-(3-chloro-2-methylphenyl)-[1,2,4]triazolo[4,3-a]pyrazin-8(7H)-one] | 1590
Cc1c(Cl)cccc1-n1ccn2c(SCc3ccccc3N3CCN(C(=O)OC(C)(C)C)CC3)nnc2c1=O [Compound 31, tert-butyl 4-(2-((7-(3-chloro-2-methylphenyl)-8-oxo-7,8-dihydro-[1,2,4]triazolo[4,3-a]pyrazin-3-ylthio)methyl)phenyl)piperazine-1-carboxylate] | 1170
[2H]c1c([2H])c([2H])c(C([2H])([2H])S(=O)(=O)c2nnc3c(=O)n(-c4cccc(Cl)c4C)ccn23)c([2H])c1[2H] [Compound 140, deuterated-7-(3-chloro-2-methylphenyl)-3-[(phenyl-(d5)methyl-(d2))sulfonyl]-1,2,4-triazolo[4,3-a]pyrazin-8(7H)-one] | 31.8
Cc1c(Cl)cccc1-n1ccn2c(SCc3cc(Cl)cc(Cl)c3)nnc2c1=O [Compound 101, 7-(3-chloro-2-methylphenyl)-3-(3,5-dichlorobenzylthio)-[1,2,4]triazolo[4,3-a]pyrazin-8(7H)-one] | 167
Cc1cccc(-n2ccn3c(SCc4ccccc4)nnc3c2=O)c1C [Compound 92, 3-(benzylthio)-7-(2,3-dimethylphenyl)-[1,2,4]triazolo[4,3-a]pyrazin-8(7H)-one] | 209
[2H]c1c([2H])c([2H])c(CSc2nnc3c(=O)n(-c4cccc(C(F)(F)F)c4C)ccn23)c([2H])c1[2H] [Compound 21, deuterated-7-[2-methyl-3-(trifluoromethyl)phenyl]-3-[(phenyl-(d5)-methy)thio]-1,2,4-triazolo[4,3-a]pyrazin-8(7H)-one] | 84.9
Cc1c(-n2ccn3c(S(=O)(=O)Cc4ccccc4-c4ccc(C(F)(F)F)cc4)nnc3c2=O)cccc1C(F)(F)F [Compound 164, 7-(2-methyl-3-(trifluoromethyl)phenyl)-3-((4′-(trifluoromethyl)biphenyl-2-yl)methylsulfonyl)-[1,2,4]triazolo[4,3-a]pyrazin-8(7H)-one] | 629
Cc1c(Cl)cccc1-n1ccn2c(SCc3cc(F)cc(F)c3)nnc2c1=O [Compound 114, 7-(3-chloro-2-methylphenyl)-3-(3,5-difluorobenzylthio)-[1,2,4]triazolo[4,3-a]pyrazin-8(7H)-one] | 697
Cc1c(Cl)cccc1-n1ccn2c(SCc3cccc(Br)c3)nnc2c1=O [Compound 86, 3-(3-bromobenzylthio)-7-(3-chloro-2-methylphenyl)-[1,2,4]triazolo[4,3-a]pyrazin-8(7H)-one] | 446

SMILES | IC50 [nM]
Cc1c(Cl)cccc1-n1ccn2c(SCc3c(Cl)cccc3Cl)nnc2c1=O [Compound 75, 7-(3-chloro-2-methylphenyl)-3-(2,6-dichlorobenzylthio)-[1,2,4]triazolo[4,3-a]pyrazin-8(7H)-one] | 280
Cc1c(-n2ccn3c(S(=O)(=O)Cc4ccccc4-c4ccccc4)nnc3c2=O)cccc1C(F)(F)F [Compound 126] | 15.9
Cc1c(-n2ccn3c(SCc4ccccc4I)nnc3c2=O)cccc1C(F)(F)F [Compound 11] | 106
Cc1c(-n2ccn3c(SC(C(=O)c4ccccc4)c4ccccc4)nnc3c2=O)cccc1C(F)(F)F (stereo not shown) [Compound 22, 7-(2-methyl-3-(trifluoromethyl)phenyl)-3-(2-oxo-1,2-diphenylethylthio)-[1,2,4]triazolo[4,3-a]pyrazin-8(7H)-one] | 1450
Cc1c(Cl)cccc1-n1ccn2c(SCc3ccccc3SC(F)(F)F)nnc2c1=O [Compound 52, 7-(3-chloro-2-methylphenyl)-3-(2-(trifluorornethylthio)benzylthio)-[1,2,4]triazolo[4,3-a]pyrazin-8(7H)-one] | 316
Cc1c(Cl)cccc1-n1ccn2c(S(=O)(=O)Cc3cccc(Cl)c3)nnc2c1=O [Compound 156, 7-(3-chloro-2-methylphenyl)-3-(3-chlorobenzylsulfonyl)-[1,2,4]triazolo[4,3-a]pyrazin-8(7H)-one] | 119
Cc1c(Cl)cccc1-n1ccn2c(SCC(=O)c3ccccc3C(F)(F)F)nnc2c1=O [Compound 109, 7-(3-chloro-2-methylphenyl)-3-(2-oxo-2-(2-(trifluoromethyl)phenyl)ethylthio)-[1,2,4]-triazolo[4,3-a]pyrazin-8(7H)-one] | 448
Cc1c(Cl)cccc1-n1ccn2c(SCc3ccccc3CN3CCOCC3)nnc2c1=O [Compound 39, 7-(3-chloro-2-methylphenyl)-3-(2-(rnorpholinornethyl)benzylthio)-[1,2,4]triazolo[4,3-a]pyrazin-8(7H)-one] | 636
Cc1c(-n2ccn3c([S+]([O-])Cc4ccccc4)nnc3c2=O)cccc1C(F)(F)F (stereo not shown) [Compound 117, 3-(benzylsulfinyl)-7-(2-methyl-3-(trifluoromethyl)phenyl)-[1,2,4]triazolo[4,3-a]pyrazin-8(7H)-one] | 76.5
Cc1c(Cl)cccc1-n1ccn2c(S(=O)(=O)Cc3ccccc3Cl)nnc2c1=O [Compound 134, 7-(3-chloro-2-methylphenyl)-3-(2-chlorobenzylsulfonyl)-[1,2,4]triazolo[4,3-a]pyrazin-8(7H)-one] | 23.2
Cc1c(Cl)cccc1-n1ccn2c(SCc3ccccc3Br)nnc2c1=O [Compound 71, 3-(2-bromobenzylthio)-7-(3-chloro-2-methylphenyl)-[1,2,4]triazolo[4,3-a]pyrazin-8(7H)-one] | 142
Cc1c(-n2ccn3c(SCc4ccccc4-c4ccccc4)nnc3c2=O)cccc1C(F)(F)F [Compound 49, 3-(biphenyl-2-ylmethylthio)-7-(2-methyl-3-(trifluoromethyl)phenyl)-[1,2,4]triazolo[4,3-a]pyrazin-8(7H)-one] | 15.9
Cc1c(-n2ccn3c(SCc4ccccc4-c4ccc(C(F)(F)F)cc4)nnc3c2=O)cccc1C(F)(F)F [Compound 8, 7-(2-methyl-3-(trifluoromethyl)phenyl)-3-((4′-(trifluoromethyl)biphenyl-2-yl)rnethylthio)-[1,2,4]triazolo[4,3-a]pyrazin-8(7H)-one] | 905
Cc1c(Cl)cccc1-n1ccn2c(N(Cc3ccccc3)CC3CC3)nnc2c1=O [Compound 171, 3-(benzyl(cyclopropylmethyl)amino)-7-(3-chloro-2-methylphenyl)-[1,2,4]triazolo[4,3 - a]pyrazin-8(7H)-one] | 229
Cc1c(Cl)cccc1-n1ccn2c(NCc3ccccc3-c3ccccc3)nnc2c1=O [Compound 166, 3-(biphenyl-2-ylmethylamino)-7-(3-chloro-2-methylphenyl)-[1,2,4]triazolo[4,3-a]pyrazin-8(7H)-one] | 585
